Our source for the IC50 and DC50 values is patent US20250115581A1, “SUBSTITUTED PIPERIDINES AS CK1A DEGRADERS” (Monte Rosa Therapeutics, Inc., priority 2022, published 2025).

SMILES strings stand for the structures.

The target of one experiment is CRBN/DDB1 (Homo sapiens, UniProt Q96SW2). The experiment can be described thus: HTRF binding assay (displacement of Cy5-thalidomide probe from CRBN/DDB1). The conditions noted are these: CRBN/DDB1 2.5 nM, Cy5-Thalidomide 100 nM, 30 min; geometric mean; read-out: HTRF_Thali_Disp_DR_geo_IC50. The method, boiled down: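 HTRF displacement of Cy5-thalidomide probe (100 nM) from His-tagged CRBN/DDB1 (2.5 nM) with anti-His terbium cryptate, in HEPES/NaCl/TCEP/EDTA/Tween20 buffer; 10-point 1:3 series, 30 min at ambient temperature. 665/620 nm ratio fitted 4-parameter logistic for IC50; Ki via Cheng-Prusoff.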
CRBN/DDB1, sequence (Q96SW2 whole entry): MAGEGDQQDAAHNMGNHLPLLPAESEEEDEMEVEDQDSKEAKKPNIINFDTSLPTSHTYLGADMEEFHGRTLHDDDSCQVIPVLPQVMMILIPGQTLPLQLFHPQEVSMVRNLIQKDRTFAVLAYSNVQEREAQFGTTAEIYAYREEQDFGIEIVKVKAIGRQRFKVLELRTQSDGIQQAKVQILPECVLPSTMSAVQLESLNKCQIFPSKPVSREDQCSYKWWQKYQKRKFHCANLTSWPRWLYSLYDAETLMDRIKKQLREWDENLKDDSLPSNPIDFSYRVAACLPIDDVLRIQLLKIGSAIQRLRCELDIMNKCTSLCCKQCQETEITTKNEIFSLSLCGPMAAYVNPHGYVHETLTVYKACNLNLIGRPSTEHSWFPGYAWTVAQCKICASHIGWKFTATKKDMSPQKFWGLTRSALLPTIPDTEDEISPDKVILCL
CRBN/DDB1, sequence (Q16531 whole entry partner): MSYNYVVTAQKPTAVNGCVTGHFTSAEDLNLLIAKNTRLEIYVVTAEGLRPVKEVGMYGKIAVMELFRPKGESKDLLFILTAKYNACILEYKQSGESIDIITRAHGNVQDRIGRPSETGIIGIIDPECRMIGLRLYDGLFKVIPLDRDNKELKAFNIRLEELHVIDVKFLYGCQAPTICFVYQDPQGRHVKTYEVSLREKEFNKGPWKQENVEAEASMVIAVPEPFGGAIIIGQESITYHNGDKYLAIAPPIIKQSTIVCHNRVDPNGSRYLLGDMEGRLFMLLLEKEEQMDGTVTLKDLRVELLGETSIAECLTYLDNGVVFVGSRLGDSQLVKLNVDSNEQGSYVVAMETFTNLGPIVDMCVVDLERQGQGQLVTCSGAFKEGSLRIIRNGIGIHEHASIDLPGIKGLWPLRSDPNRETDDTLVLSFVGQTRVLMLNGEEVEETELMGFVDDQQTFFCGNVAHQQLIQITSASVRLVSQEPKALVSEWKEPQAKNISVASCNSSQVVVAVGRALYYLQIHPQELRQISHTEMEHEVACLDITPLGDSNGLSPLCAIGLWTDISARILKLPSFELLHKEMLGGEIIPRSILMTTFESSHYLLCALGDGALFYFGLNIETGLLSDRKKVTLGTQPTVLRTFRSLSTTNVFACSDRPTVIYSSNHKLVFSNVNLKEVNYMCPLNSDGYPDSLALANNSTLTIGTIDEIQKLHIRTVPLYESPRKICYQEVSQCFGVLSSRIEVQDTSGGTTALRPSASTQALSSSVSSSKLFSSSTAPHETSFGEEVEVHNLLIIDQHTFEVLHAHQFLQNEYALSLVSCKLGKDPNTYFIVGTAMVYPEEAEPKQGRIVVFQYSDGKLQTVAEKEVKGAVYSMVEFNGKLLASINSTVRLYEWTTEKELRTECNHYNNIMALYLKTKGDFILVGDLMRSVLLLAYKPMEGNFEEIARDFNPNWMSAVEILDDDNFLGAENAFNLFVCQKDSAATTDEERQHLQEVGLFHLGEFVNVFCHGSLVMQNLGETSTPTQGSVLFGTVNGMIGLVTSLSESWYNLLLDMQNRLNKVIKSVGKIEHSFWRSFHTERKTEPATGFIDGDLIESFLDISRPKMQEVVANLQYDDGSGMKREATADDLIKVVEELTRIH

The next experiment concerns the target T1, CK1α (Homo sapiens, UniProt P48729+Q96SW2).
T1 construct: HEK293 clonal lines with CRISPR KI HiBiT tag on CSNK1A1; host or cells: HEK293 clonal line, CRISPR knock-in HiBiT at the CSNK1A1 locus, stably expressing LgBiT
The experiment can be described thus: CK1α NanoBit Assay (HiBiT-tagged CSNK1A1 in HEK293 cells, luminescence). The format is cell-based. The conditions noted are these: 24 h. In a few lines: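 HEK293 with endogenous HiBiT-tagged CSNK1A1 and stable LgBiT, live-cell Endurazine substrate; compound added at 10 or 30 μM final top concentration after 16 h plating, then 24 h at 37 °C. Luminescence normalised to plate controls; DC50 by 3-parameter logistic fit, hill slope 1.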
In general terms: HiBiT is a short tag that completes a luciferase, so light tracks the accessible tagged protein.

T1 sequence (P48729 whole entry): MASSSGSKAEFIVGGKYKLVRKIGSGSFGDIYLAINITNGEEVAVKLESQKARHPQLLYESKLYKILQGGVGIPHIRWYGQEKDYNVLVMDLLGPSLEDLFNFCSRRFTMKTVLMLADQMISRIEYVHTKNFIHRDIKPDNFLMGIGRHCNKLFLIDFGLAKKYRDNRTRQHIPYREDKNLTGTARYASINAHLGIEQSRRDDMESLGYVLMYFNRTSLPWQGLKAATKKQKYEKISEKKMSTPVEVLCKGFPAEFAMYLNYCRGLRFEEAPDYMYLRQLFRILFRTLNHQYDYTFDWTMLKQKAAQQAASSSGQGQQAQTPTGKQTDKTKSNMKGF
T1 sequence (Q96SW2 whole entry): as the sequence (Q96SW2 whole entry) above
T1 sequence (Q16531 whole entry partner): as the sequence (Q16531 whole entry partner) above

Turning to `CN1CCN(c2ccc(N3CCN(c4ccc5c(c4)CN(C4CCC(=O)NC4=O)C5=O)C3=O)cc2)CC1` (stereo not drawn) [Compound 163, 3-(5-(3-(4-(4-methylpiperazin-1-yl)phenyl)-2-oxoimidazolidin-1-yl)-1-oxoisoindolin-2-yl)piperidine-2,6-dione], at CRBN/DDB1, the IC50 lay within 100 to 1000 nM. The compound also yielded a DC50 at CK1α of 0.1 to 1 µM.
For `O=C1CCC(N2Cc3cc(N4CCN(C5CC5)C4=O)ccc3C2=O)C(=O)N1` (stereo not drawn) [Compound 164, 3-[5-(3-cyclopropyl-2-oxo-imidazolidin-1-yl)-1-oxo-isoindolin-2-yl]piperidine-2,6-dione], in that order: 100 to 1000 nM and 0.1 to 1 µM.
As to `CN1CCN(c2cccc(N3CCN(c4ccc5c(c4)CN(C4CCC(=O)NC4=O)C5=O)C3=O)c2)CC1` (stereo not drawn) [Compound 165, 3-(5-(3-(3-(4-methylpiperazin-1-yl)phenyl)-2-oxoimidazolidin-1-yl)-1-oxoisoindolin-2-yl)piperidine-2,6-dione], the IC50 on CRBN/DDB1 is 100 to 1000 nM. The compound also yielded a DC50 at CK1α of 0.1 to 1 µM.
Turning to `COCc1cc(C)ccc1N1CCN(c2ccc3c(c2)CN(C2CCC(=O)NC2=O)C3=O)C1=O` (stereo not drawn) [Compound 166, 3-(5-(3-(2-(methoxymethyl)-4-methylphenyl)-2-oxoimidazolidin-1-yl)-1-oxoisoindolin-2-yl)piperidine-2,6-dione], on CRBN/DDB1, the IC50 lay in the range of 100 to 1000 nM. At CK1α, the DC50 fell in the range of 0.1 to 1 µM.
`Cc1ccccc1N1C(=O)N(c2ccc3c(c2)CN(C2CCC(=O)NC2=O)C3=O)C[C@H]1C` (stereo partly drawn) [Compound 167, 3-(5-((R)-4-methyl-2-oxo-3-(o-tolyl)imidazolidin-1-yl)-1-oxoisoindolin-2-yl)piperidine-2,6-dione]: the IC50 at CRBN/DDB1 is 100 to 1000 nM. Moreover, on CK1α, the DC50 is 0.1 to 1 µM.
For `COCc1ccccc1N1CCN(c2ccc3c(c2)CN(C2CCC(=O)NC2=O)C3=O)C1=O` (stereo not drawn) [Compound 168, 3-(5-(3-(2-(methoxymethyl)phenyl)-2-oxoimidazolidin-1-yl)-1-oxoisoindolin-2-yl)piperidine-2,6-dione], the IC50 at CRBN/DDB1 is 100 to 1000 nM. At CK1α, this compound returned a DC50 of 0.1 to 1 µM.
For `COC(C)c1ccccc1N1CCN(c2ccc3c(c2)CN(C2CCC(=O)NC2=O)C3=O)C1=O` (stereo not drawn) [Compound 169, 3-(5-(3-(2-(1-methoxyethyl)phenyl)-2-oxoimidazolidin-1-yl)-1-oxoisoindolin-2-yl)piperidine-2,6-dione], in that order: 100 to 1000 nM and 0.1 to 1 µM.
On the same counts, the results for `O=C1CCC(N2Cc3cc(N4CCN(c5ccc6[nH]cnc6c5)C4=O)ccc3C2=O)C(=O)N1` (stereo not drawn) [Compound 170, 3-(5-(3-(1H-benzo[d]imidazol-5-yl)-2-oxoimidazolidin-1-yl)-1-oxoisoindolin-2-yl) piperidine-2,6-dione] are ≤ 100 nM and 0.1 to 1 µM.
Take `O=C1CCC(N2Cc3cc(N4CCN(C5CC6(COC6)C5)C4=O)ccc3C2=O)C(=O)N1` (stereo not drawn) [Compound 171, 3-(1-oxo-5-(2-oxo-3-(2-oxaspiro[3.3]heptan-6-yl)imidazolidin-1-yl)isoindolin-2-yl)piperidine-2,6-dione]: at CRBN/DDB1, the IC50 was 100 to 1000 nM. Also, the DC50 at CK1α lay within 0.1 to 1 µM.
In the case of `CN1Cc2cccc(N3CCN(c4ccc5c(c4)CN(C4CCC(=O)NC4=O)C5=O)C3=O)c2C1` (stereo not drawn) [Compound 172, 3-(5-(3-(2-methylisoindolin-4-yl)-2-oxoimidazolidin-1-yl)-1-oxoisoindolin-2-yl)piperidine-2,6-dione], at CRBN/DDB1, the IC50 is ≤ 100 nM. Also, the DC50 on CK1α is > 1 µM.
With `Cc1ccc(N2C(=O)N(c3ccc4c(c3)CN(C3CCC(=O)NC3=O)C4=O)C[C@H]2C(F)F)cc1` (stereo partly drawn) [Compound 173, 3-(5-((S)-4-(difluoromethyl)-2-oxo-3-(p-tolyl)imidazolidin-1-yl)-1-oxoisoindolin-2-yl)piperidine-2,6-dione], on CRBN/DDB1, the IC50 is 100 to 1000 nM. On CK1α, the DC50 was > 1 µM.
Take `O=C1CCC(N2Cc3cc(N4CCN(C5CN(c6ccccc6)C5)C4=O)ccc3C2=O)C(=O)N1` (stereo not drawn) [Compound 174, 3-(1-oxo-5-(2-oxo-3-(1-phenylazetidin-3-yl)imidazolidin-1-yl)isoindolin-2-yl)piperidine-2,6-dione]: the IC50 on CRBN/DDB1 lay in the range of 100 to 1000 nM. Further, the DC50 on CK1α is > 1 µM.
Turning to `O=C1CCC(N2Cc3cc(N4CCN(c5cccc6nc[nH]c56)C4=O)ccc3C2=O)C(=O)N1` (stereo not drawn) [Compound 175, 3-(5-(3-(1H-benzo[d]imidazol-7-yl)-2-oxoimidazolidin-1-yl)-1-oxoisoindolin-2-yl) piperidine-2,6-dione], at CRBN/DDB1, the IC50 is > 1000 nM. Further, the DC50 on CK1α is > 1 µM.
On to `CN1CC(c2ccc(N3CCN(c4ccc5c(c4)CN(C4CCC(=O)NC4=O)C5=O)C3=O)cc2)C1` (stereo not drawn) [Compound 176, 3-(5-(3-(4-(1-methylazetidin-3-yl)phenyl)-2-oxoimidazolidin-1-yl)-1-oxoisoindolin-2-yl)piperidine-2,6-dione], for which the IC50 on CRBN/DDB1 was ≤ 100 nM. For the same compound, the DC50 at CK1α is > 1 µM.
On the same counts, the results for `CN1CCCC1c1ccc(N2CCN(c3ccc4c(c3)CN(C3CCC(=O)NC3=O)C4=O)C2=O)cc1` (stereo not drawn) [Compound 177, 3-(5-(3-(4-(1-methylpyrrolidin-2-yl)phenyl)-2-oxoimidazolidin-1-yl)-1-oxoisoindolin-2-yl)piperidine-2,6-dione] are 100 to 1000 nM and > 1 µM.
For `O=C1CCC(N2Cc3cc(N4CCN(C5COC5)C4=O)ccc3C2=O)C(=O)N1` (stereo not drawn) [Compound 178, 3-(5-(3-(oxetan-3-yl)-2-oxoimidazolidin-1-yl)-1-oxoisoindolin-2-yl)piperidine-2,6-dione], in that order: 100 to 1000 nM and > 1 µM.
For `O=C1CCC(N2Cc3cc(N4CCN(C(c5ccccc5)C(F)(F)F)C4=O)ccc3C2=O)C(=O)N1` (stereo not drawn) [Compound 179, 3-(1-oxo-5-(2-oxo-3-(2,2,2-trifluoro-1-phenylethyl)imidazolidin-1-yl)isoindolin-2-yl)piperidine-2,6-dione], in that order: 100 to 1000 nM and > 1 µM.
Take `C[C@@H]1CN(c2ccc3c(c2)CN(C2CCC(=O)NC2=O)C3=O)C(=O)N1c1ccncn1` (stereo partly drawn) [Compound 180, 3-(5-((R)-4-methyl-2-oxo-3-(pyrimidin-4-yl)imidazolidin-1-yl)-1-oxoisoindolin-2-yl)piperidine-2,6-dione]: the IC50 at CRBN/DDB1 is > 1000 nM. Moreover, at CK1α, the DC50 is > 1 µM.
For `CC(C)C(=O)c1ccc(N2CCN(c3ccc4c(c3)CN(C3CCC(=O)NC3=O)C4=O)C2=O)cc1` (stereo not drawn) [Compound 181, 3-(5-(3-(4-isobutyrylphenyl)-2-oxoimidazolidin-1-yl)-1-oxoisoindolin-2-yl)piperidine-2,6-dione], in that order: ≤ 100 nM and > 1 µM.
For `C[C@@H]1CN(c2ccc3c(c2)CN(C2CCC(=O)NC2=O)C3=O)C(=O)N1c1ncccn1` (stereo partly drawn) [Compound 182, 3-(5-((R)-4-methyl-2-oxo-3-(pyrimidin-2-yl)imidazolidin-1-yl)-1-oxoisoindolin-2-yl)piperidine-2,6-dione], in that order: 100 to 1000 nM and > 1 µM.
For the compound `O=C1CCC(N2Cc3cc(N4CCN(C5CCOCC5)C4=O)ccc3C2=O)C(=O)N1` (stereo not drawn) [Compound 183, 3-(1-oxo-5-(2-oxo-3-(tetrahydro-2H-pyran-4-yl)imidazolidin-1-yl)isoindolin-2-yl)piperidine-2,6-dione], the IC50 at CRBN/DDB1 was in the range of 100 to 1000 nM. Also, on CK1α, the DC50 was > 1 µM.
